Measured values as given in patent EP4741380A1, “ISOXAZOLINE COMPOUND AND USE” (priority 2024, dated 2025).
Where two headings read alike, the source gives them in different places.

What was measured:
[1] = tested on: mites; test: Mite killing efficacy test with an in vitro model
Experimental: Mite collection: Live mites were gently picked up from a cage box with cotton swabs or small tweezers, 17-26 live mites per group.
Drug treatment and detection method: 100 µL of a drug solution with a different concentration (drug solution prepared by 3% DMSO solution + 97% water and having a target final concentration of 30 µM) was aspirated with a pipette and added to a 24-well plate for each group, ensuring full contact between the drug and the mites. The mites were separately incubated at normal temperature for 5 min, transferred from each plate to another dry 24-well plate with the top sealed, and air-dried for about 1 h. Mite actions were observed, and the number of dead mites/the total number of mites was recorded. Then, the 24-well plate containing the mites was cultured at room temperature and relatively high humidity. The number of dead mites/the total number of mites was counted separately after 1 h, 2 h, 4 h, 6 h, 8 h, 22 h, and 24 h (time points after drug addition), and mite mortality rates were calculated. The project ended 24 h after drug addition.
At a corresponding time point, a mite mortality rate greater than or equal to 90% is denoted as "+++", a mite mortality rate less than 90% and greater than or equal to 50% is denoted as "++", and a mite mortality rate less than 50% is denoted as "+".

[2] = tested on: Diamondback moth; test: Killing efficacy test against agricultural pests: diamondback moth test (leaf dip); type: in vivo; details: Plutella xylostella, foliar, read-out: Corrected Mortality Rate (%)
Experimental: (§1) Solution preparation: 2 mg of a test compound was weighed and dissolved in 200 µL of acetone, and the sample was diluted with an aqueous solution containing 0.1% Tween 80 to a required concentration to obtain a test solution. 1. Diamondback moth test: The test sample was prepared into solutions with final concentrations of 0.0156 mg/L, 0.125 mg/L, and 1 mg/L. Fresh and clean rapeseed leaves were cut into small pieces of 3 cm × 3 cm. The leaf pieces were immersed in the solutions with different concentrations for 10s, taken out, and air-dried naturally. The treated leaf pieces were placed into Petri dishes lined with moistened filter paper. 20 third-instar larvae of the diamondback moth were introduced into each Petri dish. The Petri dishes were placed in a constant-temperature room, and mortality rates were checked after 72 h. 2. Aphid test: The test sample was prepared into solutions with final concentrations of 2 mg/L, 10 mg/L, and 50 mg/L. Fresh cotton leaves of uniform size were immersed in the solutions with different concentrations for 10s, air-dried, and placed backside up on culture plates. 100 wingless adult aphids were introduced into each culture plate. The culture plates were sealed with paper strips and placed in a constant-temperature room. Mortality rates were checked after 72 h. 3. Mite test: The test sample was prepared into solutions with final concentrations of 0.02 mg/L, 0.2 mg/L, and 2 mg/L. Filter paper treated with the test solutions was placed in Petri dishes, and about 30 mites were placed at the center of each Petri dish. 0.05 g of mite feed was added to the center of each Petri dish after 30 min. The Petri dishes were placed in a constant-temperature room, and mortality rates were checked after 72 h. 4. Borer test: The test sample was prepared into solutions with final concentrations of 0.125 mg/L, 0.5 mg/L, and 2 mg/L. Fresh leaves were cut, immersed in the solutions with different concentrations for 10s, taken out, and air-dried. The treated leaves were placed in Petri dishes, and 30 borer larvae were introduced into each Petri dish. The Petri dishes were placed in a constant-temperature room, and mortality rates were checked after 72 h.

[3] = tested on: Aphid; test: Killing efficacy test against agricultural pests: aphid test (leaf dip); type: in vivo, aphids; details: after 72 h
Experimental: as §1

[4] = tested on: Mite; test: Killing efficacy test against agricultural pests: mite test (treated filter paper); type: in vivo, mites; details: after 72 h
Experimental: as §1

[5] = tested on: Borer; test: Killing efficacy test against agricultural pests: borer test (leaf dip); type: in vivo; details: after 72 h
Experimental: as §1

[6] = In vivo pharmacokinetic evaluation in mice; parameters: species or system ICR mice; details: for AUC: read-out: AUC^1-24 h; for Vd: in vivo, read-out: Vss
Experimental: 1. Drug preparation: 5% DMSO + 10% macrogol 15 hydroxystearate (BASF) + 85% saline (where drug solutions have a final concentration of 1.2 mg/mL for the IV group and 3 mg/mL for the PO group). 2. Experimental animals: Each group included three mice (ICR mice, SPF grade). 3. Administration method: The body weight was measured before administration, and the dose was calculated according to the body weight. The mice were administered through intravenous injection or oral gavage. 4. Blood collection: After administration, blood samples were collected in 0.083 h, 0.25 h, 0.5 h, 1 h, 2 h, 4 h, 6 h, 8 h, and 24 h. The blood samples were collected via the cheek. Each sample included about 0.05 mL of blood anticoagulated with EDTA-2K. The blood samples were placed on wet ice after collection. 5. Sample treatment: The blood samples were placed on ice after collection and centrifuged within 1 h to obtain plasma (centrifugation conditions: 6000 g, 3 min, 2-8°C). Plasma samples were stored in a -80°C refrigerator before analysis. 6. Data processing: Pharmacokinetic parameters were calculated using Phoenix WinNonlin 8.2.0 based on plasma concentration data at different time points.

[7] = 4 h, read-out: Mite Mortality Rate 4 h
[8] = 24 h, read-out: Mite Mortality Rate 24 h
[9] = ICR, mouse, IV (6 mg/kg), plasma
[10] = ICR, mouse, IV (6 mg/kg), plasma, read-out: C0
[11] = ICR, mouse, PO (30 mg/kg), plasma
[12] = ICR, mouse, PO (30 mg/kg), plasma, read-out: Cmax
[13] = ICR, mouse, PO (30 mg/kg), plasma, read-out: Tmax
[14] = ICR, mouse, plasma, PO (30 mg/kg) vs IV (6 mg/kg)
[15] = 30 µM drug solution, 4 h after drug addition, read-out: Mite Mortality Rate 4 h
[16] = 30 µM drug solution, 24 h after drug addition, read-out: Mite Mortality Rate 24 h
[17] = DiamondBack Moth, 0.0156 mg/L, after 72 h
[18] = DiamondBack Moth, 0.125 mg/L, after 72 h
[19] = DiamondBack Moth, 1 mg/L, after 72 h

Compound	mortality at 30 µM [1, 7] [%]	mortality at 30 µM [1, 8] [%]	Corrected Mortality Rate (%) ([3]; 2 mg/L)	Corrected Mortality Rate (%) ([3]; 10 mg/L)	Corrected Mortality Rate (%) ([3]; 50 mg/L)	Corrected Mortality Rate (%) ([4]; 0.02 mg/L)	Corrected Mortality Rate (%) ([4]; 0.2 mg/L)	Corrected Mortality Rate (%) ([4]; 2 mg/L)	Corrected Mortality Rate (%) ([5]; 0.125 mg/L)	Corrected Mortality Rate (%) ([5]; 0.5 mg/L)	Corrected Mortality Rate (%) ([5]; 2 mg/L)	clearance [6, 9] [mL/min/kg]	half-life [6, 9] [min]	AUC [6, 9] [µg·h/mL]	C0 [6, 10] [ng/mL]	half-life [6, 11] [min]	AUC [6, 11] [µg·h/mL]	Cmax [6, 12] [ng/mL]	Tmax [6, 13] [h]	Vd [6, 9] [L/kg]	other results
Cc1cc(C2=NO[C@@](c3cc(Cl)cc(C(F)(F)F)c3)(C(F)(F)F)C2)ccc1C(=O)NCC(=O)NC1(C(F)(F)F)CC1 [Example 008, (S)-4-(5-(3-chloro-5-(trifluoromethyl)phenyl)-5-(trifluoromethyl)-4,5-dihydroisoxazol-3-yl)-2-m ethyl-N-(2-oxo-2-((1-(trifluoromethyl)cyclopropyl)amino)ethyl)benzamide]	> 90	> 90	86	100	100	62	92	100	2	82	100	0.713	2260	56.1	10300	1900	233	15300	9.33	1.93	mortality at 0.0156 µg/mL ([2]; 72 h): 5%; mortality at 0.125 µg/mL ([2]; 72 h): 100%; mortality at 1 µg/mL ([2]; 72 h): 100%; bioavailability [6, 14]: 83.1%
Cc1cc(C2=NO[C@@](c3cc(Cl)cc(Cl)c3)(C(F)(F)F)C2)ccc1C(=O)NCC(=O)NC1(C(F)(F)F)CC1 [Example 011, (S)-4-(5-(3,5-dichlorophenyl)-5-(trifluoromethyl)-4,5-dihydroisoxazol-3-yl)-2-methyl-N-(2-oxo-2-((1-(trifluoromethyl)cyclopropyl)amino)ethyl)benzamide]	> 90	> 90	60	100	100	34	86	100	29	93	100	1.18	1200	48.9	6800	1670	231	15900	2.67	1.96	mortality at 0.0156 µg/mL ([2]; 72 h): 0%; mortality at 0.125 µg/mL ([2]; 72 h): 100%; mortality at 1 µg/mL ([2]; 72 h): 100%; bioavailability [6, 14]: 94.6%
Cc1cc(C2=NOC(c3cc(Cl)c(Cl)c(C(F)(F)F)c3)(C(F)(F)F)C2)ccc1C(=O)NCC(=O)NC1(C(F)(F)F)CC1 (stereo not shown) [Example 029, 4-(5-(3,4-dichloro-5-(trifluoromethyl)phenyl)-5-(trifluoromethyl)-4,5-dihydroisoxazol-3-yl)-2-m ethyl-N-(2-oxo-2-((1-(trifluoromethyl)cyclopropyl)amino)ethyl)benzamide]	–	–	5	100	100	54	70	100	0	50	100	–	–	–	–	–	–	–	–	–	mortality at 30 µM [1, 15]: > 90%; mortality at 30 µM [1, 16]: > 90%; mortality at 0.0156 µg/mL [2, 17]: 0%; mortality at 0.125 µg/mL [2, 18]: 79%; mortality at 1 µg/mL [2, 19]: 100%
Cc1cc(C2=NOC(c3cc(C(F)(F)F)cc(C(F)(F)F)c3)(C(F)(F)F)C2)ccc1C(=O)NCC(=O)NC1(C(F)(F)F)CC1 (stereo not shown) [Example 030, 4-(5-(3,5-bis(trifluoromethyl)phenyl)-5-(trifluoromethyl)-4,5-dihydroisoxazol-3-yl)-2-methyl-N-(2-oxo-2-((1-(trifluoromethyl)cyclopropyl)amino)ethyl)benzamide]	–	–	22	86	100	34	66	96	30	100	100	–	–	–	–	–	–	–	–	–	mortality at 30 µM [1, 15]: > 90%; mortality at 30 µM [1, 16]: > 90%; mortality at 0.0156 µg/mL [2, 17]: 16%; mortality at 0.125 µg/mL [2, 18]: 63%; mortality at 1 µg/mL [2, 19]: 100%
Cc1cc(C2=NOC(c3cc(Cl)cc(Cl)c3)(C(F)(F)F)C2)ccc1C(=O)NCC(=O)NC1CC1 (stereo not shown) [Example 39 (Comparative Example 1), N-(2-(cyclopropylamino)-2-oxoethyl)-4-(5-(3,5-dichlorophenyl)-5-(trifluoromethyl)-4,5-dihydroisoxazol-3-yl)-2-methylbenzamide, reference compound]	> 90	> 90	–	–	–	–	–	–	–	–	–	2.06	738	37.1	7800	708	173	12300	3.33	1.97	bioavailability [6, 14]: 93.1%
Cc1cc(C2=NOC(c3cc(Cl)cc(Cl)c3)(C(F)(F)F)C2)ccc1C(=O)NCC(=O)NCC(F)(F)F (stereo not shown) [Fluralaner, fluralaner, reference compound]	–	–	–	–	–	–	–	–	–	–	–	–	–	–	–	–	–	–	–	–	Mite Mortality Rate 4 h ([1]; 30 µM drug solution, 4 h after drug addition): +++ (a mite mortality rate greater than or equal to 90% is denoted as "+++"); Mite Mortality Rate 24 h ([1]; 30 µM drug solution, 24 h after drug addition): +++ (a mite mortality rate greater than or equal to 90% is denoted as "+++"); AUC^1-24 h ([6]; IV (6 mg/kg), plasma): 22972 ng·h/mL; C0 ([6]; IV (6 mg/kg), plasma): 7151 ng/mL; CL ([6]; IV (6 mg/kg), plasma): 3.49 mL/kg/min; T1/2 ([6]; IV (6 mg/kg), plasma): 11.9 h; Vss ([6]; IV (6 mg/kg), plasma): 2.87 L/kg; F (%) ([6]; PO (30 mg/kg) vs IV (6 mg/kg)): 81.42%; AUC^1-24 h ([6]; PO (30 mg/kg), plasma): 93520 ng·h/mL; Cmax ([6]; PO (30 mg/kg), plasma): 8000 ng/mL; T1/2 ([6]; PO (30 mg/kg), plasma): 15.2 h; Tmax ([6]; PO (30 mg/kg), plasma): 1.67 h
